In patent US9522942B2, “Analogs of temporin-SHa and uses thereof” (UNIVERSITE PIERRE ET MARIE CURIE (PARIS 6), priority 2009, dated 2016):
Entries after “also recorded” stand apart in the source; their conditions may differ. Ends that are not written are not given here.

How the values were obtained:
Saccharomyces cerevisiae = conditions: YPD medium, 30° C.
Protocol: (§5) The minimum inhibitory concentration (MIC) of each peptide was determined by a test of growth inhibition in broth medium. […] The test was performed in a sterile 96-well microtiter plate. A series of increasing concentrations of each peptide (1 to 400 μM) was first prepared in sterile MilliQ water containing 5% dimethyl sulphoxide (DMSO). […] 50 μL of peptide were aliquoted into each well with 50 μL of bacterial suspension (10^5-10^6 cfu/mL). The microtiter plate was then incubated for 18 hrs at 37° C. with shaking. Bacterial growth was determined by measuring OD at 630 nm (turbidity) on a plate reader. Tests were carried out in triplicate for each peptide concentration.
(§6) These strains were first grown on YPD agar for a minimum of 48 hrs. Yeast suspensions were then prepared, exactly as for bacteria, and adjusted to 10^5-10^6 cfu/mL in YPD broth medium.
(§7) The antifungal activity test corresponds to the growth inhibition test in broth medium used for the bacteria (see above) in which LB medium was replaced by YPD medium. Fungal strains were incubated at 30° C.

[1] = target: Leishmania infantum promastigotes; type: cell-based; conditions: 72 hours at 26° C., luciferase luminescence (FIG. 2 B), read-out: IC50, promastigote form
Protocol: The antiparasitic activity of the peptides was evaluated on two forms of the parasite Leishmania infantum, the promastigote form and the amastigote form.
The tests of anti-Leishmania activity were carried out with a Leishmania infantum cell line αNEO-αLUC This cell line was obtained by transforming Leishmania infantum strain MHOM/MA/67/ITMAP-263 with the vector pGM αNEO-αLUC containing the luciferase reporter gene (LUC) and the neomycin resistance gene (NEO) such as described in Roy et al. (2000). It was maintained in culture in its two forms, promastigote and amastigote.
Leishmania infantum promastigotes were maintained at 26° C. by one or two weekly passages depending on the number of parasites in the inoculum, in SDM 79 medium supplemented with 10 to 20% decomplemented foetal calf serum and […] porcine haemin and in the presence of 100 U/mL penicillin and 100 μg/mL streptomycin (Brun & Shonenberger, 1979). […] Cell densities were determined by flow cytometry in the presence of propidium iodide on a Facscan cytometer (Excalibur, Becton-Dickinson, Ivry, France).
Emitted luminescence was measured with a luminescence plate reader (Victor, PerkinElmer). […]
The percentage growth was calculated according to the following formula: % growth=[(L mean−bgd)peptide×100]/(L mean−bgd)control […]

[2] = system: Pseudomonas aeruginosa (ATCC 27853); experiment: Growth inhibition test in broth medium (MIC); type: cell-based; conditions: 18 hrs at 37° C., LB medium
Protocol: (§8) The following strains were used for the antibacterial activity tests: Escherichia coli (ATCC 25922 and ATCC 35218), Staphylococcus aureus (ATCC 25923), Enterococcus faecalis (ATCC 29212), Bacillus megaterium and Pseudomonas aeruginosa (ATCC 27853).
(§9) For each strain, a standard inoculum of 10^5 to 10^6 bacteria/mL (exponential growth phase) was prepared. To this end, a colony isolated on LB agar previously inoculated with one of the strains was cultured in 10 mL of LB broth medium. Liquid cultures were then incubated for 2 to 3 hrs at 37° C. with shaking for the bacteria to reach exponential growth phase. Each bacterial suspension was diluted in LB medium to an OD630nm of 0.01 which corresponds to a concentration of 10^5-10^6 cfu/mL (cfu: colony forming unit).
(§10) The minimum inhibitory concentration (MIC) of each peptide was determined by a test of growth inhibition in broth medium. […] The test was performed in a sterile 96-well microtiter plate. A series of increasing concentrations of each peptide (1 to 400 μM) was first prepared in sterile MilliQ water containing 5% dimethyl sulphoxide (DMSO). […] 50 μL of peptide were aliquoted into each well with 50 μL of bacterial suspension (10^5-10^6 cfu/mL). The microtiter plate was then incubated for 18 hrs at 37° C. with shaking. Bacterial growth was determined by measuring OD at 630 nm (turbidity) on a plate reader. […]

Bacillus megaterium = conditions: 18 hrs at 37° C., LB medium
Protocol: as §8, §9, §10

Gram-negative strains = conditions: summary in text for all Gram-negative strains tested
Protocol: as §8, §9, §10

[3] = system: Staphylococcus aureus (ATCC 25923); conditions: 18 hrs at 37° C., LB medium
Protocol: as §8, §9, §10

human erythrocytes = experiment: Hemolytic test; type: cell-based; conditions: relative to temporin-SHa
Protocol: (§1) The hemolytic activity of the antimicrobial peptides was assessed using human erythrocytes from healthy donors. Red blood cell hemolysis is manifested by the release into the reaction medium of hemoglobin, the concentration of which is determined spectrophotometrically at 450 nm.
(§2) Red blood cells were separated from plasma and white blood cells by centrifugation of human blood (900 g, 10 min). The pellet containing red blood cells was washed three times with PBS buffer, pH 7.4. After counting on a Malassez cell, a stock solution of 2.10^7 red blood cells/mL was prepared in the same buffer. A series of concentrations of the peptides to be tested was prepared (1 to 200 μM).
(§3) The test was carried out as follows: 100 μL of the different peptide concentrations were added to 100 μL of the red blood cell suspension. After 1 hr of incubation at 37° C. followed by centrifugation (12,000 g, 15 sec), absorbance of the supernatant was measured at 450 nm. The negative control for this test (0% hemolysis) contained 100 μL of PBS buffer in place of the peptide solution. The positive control (100% hemolysis) contained 100 μL of 0.1% Triton in place of the peptide solution.
(§4) The LC50 value obtained is the mean of three experiments carried out in triplicate and corresponds to the peptide concentration inducing hemolysis of 50% of the cells.

Hemolytic test = type: cell-based; conditions: erythrocytes (washed red blood cells), pH 7.4; human erythrocytes, 1 hr at 37° C., concentration inducing hemolysis of 50% of the cells; read-out: LC50 erythrocytes
Protocol: as §1, §2, §3, §4

[4] = system: Escherichia coli (ATCC 25922); conditions: 18 hrs at 37° C., LB medium
Protocol: as §8, §9, §10

[5] = system: Candida albicans (ATCC 90028); conditions: YPD medium, 30° C.
Protocol: as §5, §6, §7

[6] = system: Enterococcus faecalis (ATCC 29212); conditions: 18 hrs at 37° C., LB medium
Protocol: as §8, §9, §10

[7] = system: Escherichia coli (ATCC 35218); conditions: 18 hrs at 37° C., LB medium
Protocol: as §8, §9, §10

[8] = system: human monocyte cell line THP-1; conditions: THP-1, 72 hrs, MTT test (FIG. 3), at antimicrobial concentrations
Protocol: The cytotoxic activity of the antimicrobial peptides was determined on a human monocyte cell line THP-1. Cells were cultured in RPMI medium (10% FCS, 100 U/mL penicillin, 100 μg/mL streptomycin) until reaching exponential growth phase. After counting in a Thoma counting chamber, cell density was adjusted to 6.25×10^5 cells/mL in RPMI 1640 medium. Five-fold concentrated solutions of antimicrobial peptides were prepared in this RPMI medium (300 to 4.7 μM).
Monocytes were aliquoted at 80 μL of cell suspension per well (corresponding to 5×10^4 monocytes/well or 5×10^5 cells/mL final) and mixed with 20 μL of peptide solution (60 to 0.94 μM final concentration). Negative and positive controls were carried out according to the same protocol as for the tests of anti-Leishmania activity. Experiments were done in triplicate for each peptide concentration. Cells were incubated at 37° C., in a 5% CO2 atmosphere for 72 hrs.
After 72 hours, the number of viable THP-1 cells was calculated indirectly by the MTT test (Mosmann, 1983). […] Blue formazan can be detected spectrophotometrically at 570 nm.
A 10 mg/mL MTT solution in PBS buffer (pH 7.4), filtered on a 0.45 μm filter, was aliquoted at 10 μL per well. Plates were then incubated for 4 hrs at 37° C. […] The OD at 570 nm of each well was then measured (Victor plate reader, PerkinElmer) to calculate the IC50.

[9] = system: Candida parapsilosis (ATCC 22019); experiment: Antifungal growth inhibition test in YPD broth (MIC); type: cell-based; conditions: YPD medium, 30° C.
Protocol: Fungal strains were incubated at 30° C.

Protocol for Escherichia coli ML-35p: as §9, §5
The growth inhibition negative control was obtained by replacing the solution containing the peptide with 50 μL of sterile MilliQ water containing 5% DMSO. […]

FLKGIVGMLGKLF-NH2 [[K^3]temporin-SHa]
MIC (Saccharomyces cerevisiae): 6.25 µM | IC50 [1]: ~10 µM | MIC (Escherichia coli ML-35p): 3 µM | MIC [2]: 3 µM | MIC (Bacillus megaterium): 1.5 µM | MIC, all Gram-negative strains tested (Gram-negative strains): 3 µM | MIC [3]: 3 µM | Change in hemolytic activity as compared with temporin-SHa (human erythrocytes): twofold decrease; also recorded: twofold reduction | HC50 at 1 hr (Hemolytic test): 50 µM | MIC [4]: 3 µM | MIC [5]: 12.5 µM | MIC [6]: 10 µM | MIC [7]: 3 µM | Cytotoxic effect on monocytes [8]: not cytotoxic

FLSGIVGMLGKLF-NH2 [temporin-SHa, F-L-S-G-I-V-G-M-L-G-K-L-F]
MIC (Saccharomyces cerevisiae): 7.9 µM | IC50 [1]: ~20 µM | MIC [9]: 31.25 µM | MIC (Escherichia coli ML-35p): 6.25 µM | MIC [2]: 31.25 µM | MIC (Bacillus megaterium): 2.5 µM | MIC [3]: 3 µM | HC50 at 1 hr (Hemolytic test): 25 µM | MIC [4]: 10 µM | MIC [5]: 15 µM | MIC [6]: 10 µM | MIC [7]: 10 µM | Cytotoxic effect on monocytes [8]: not cytotoxic
